The test has as its target T1, human LPA1 (Homo sapiens, UniProt Q92633).
T1 construct: expressed in transfected cells; host or cells: Chinese hamster ovary (CHO) cells
Kind of test: LPA1 functional antagonist assay (LPA-induced calcium flux in CHO cells overexpressing human LPA1). It counts as cell-based. To be noted: read-out: hLPA1 IC50. The method in brief:
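CHO cells overexpressing human LPA1, dye-loaded 30 min at 37 °C, then given compound (0.08 nM–5 μM final, 0.5% DMSO) in HBSS/20 mM HEPES/0.1% fatty-acid-free BSA for 20 min at room temperature before 10 nM LPA. IC50 as 50% inhibition of LPA-evoked calcium flux, 4-parameter logistic fit.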

Molecules are shown by their SMILES. Read-outs that look alike come from different tables or passages of the source.

T1 sequence (Q92633 whole entry): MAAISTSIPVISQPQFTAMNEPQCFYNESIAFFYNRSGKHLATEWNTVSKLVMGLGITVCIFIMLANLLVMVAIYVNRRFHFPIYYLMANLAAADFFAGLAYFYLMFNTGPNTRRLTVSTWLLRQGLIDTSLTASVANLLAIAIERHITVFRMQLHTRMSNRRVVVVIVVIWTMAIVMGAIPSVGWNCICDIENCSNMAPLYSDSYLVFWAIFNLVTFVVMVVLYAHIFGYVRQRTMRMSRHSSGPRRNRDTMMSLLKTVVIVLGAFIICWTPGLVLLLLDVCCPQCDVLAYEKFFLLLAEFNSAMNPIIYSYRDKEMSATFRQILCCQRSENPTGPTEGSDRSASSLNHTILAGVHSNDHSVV

Take `Cc1nc(-c2nnn(C)c2Cn2nnc(NCC3CC3)n2)ccc1O[C@H]1CCC[C@H](C(=O)O)C1` [Example 359, (1S,3S)-3-((6-(5-((5-((cyclopropylmethyl)amino)-2H-tetrazol-2-yl)methyl)-1-methyl-1H-1,2,3-triazol-4-yl)-2-methylpyridin-3-yl)oxy)cyclohexane-1-carboxylic acid]: the IC50 was determined as 428 nM.

Turning to `Cc1nc(-c2nnn(C)c2Cc2nnn(CC3CC3)n2)ccc1O[C@H]1CCC[C@H](C(=O)O)C1` [Example 360, (1S,3S)-3-((6-(5-((2-(cyclopropyl-methyl)-2H-tetrazol-5-yl)methyl)-1-methyl-1H-1,2,3-triazol-4-yl)-2-methylpyridin-3-yl)oxy)cyclo-hexane-1-carboxylic acid], the half-maximal inhibitory concentration (IC50) was 92 nM.

As to `CCCCN(C)c1nnn(Cc2c(-c3ccc(O[C@H]4CCC[C@H](C(=O)O)C4)c(C)n3)nnn2C)n1` [Example 361, (1S,3S)-3-((6-(5-((5-(butyl(methyl)amino)-2H-tetrazol-2-yl)methyl)-1-methyl-1H-1,2,3-triazol-4-yl)-2-methylpyridin-3-yl)oxy)cyclo-hexane-1-carboxylic acid], the IC50 turned out to be 228 nM.

For the molecule `CCCCNc1nnn(Cc2c(-c3ccc(O[C@H]4CCC[C@H](C(=O)O)C4)c(C)n3)nnn2C)n1` [Example 362, (1S,3S)-3-((6-(5-((5-(butylamino)-2H-tetrazol-2-yl)methyl)-1-methyl-1H-1,2,3-triazol-4-yl)-2-methyl-pyridin-3-yl)oxy)cyclohexane-1-carboxylic acid], the IC50 (inhibition of calcium flux induced by 10 nM LPA, CHO cells overexpressing human LPA1) amounted to 316 nM.

Take `CCCCN(CCCC)c1nnn(Cc2c(-c3ccc(O[C@H]4CCC[C@H](C(=O)O)C4)c(C)n3)nnn2C)n1` [Example 363, (1S,3S)-3-((6-(5-((5-(dibutylamino)-2H-tetrazol-2-yl)methyl)-1-methyl-1H-1,2,3-triazol-4-yl)-2-methyl-pyridin-3-yl)oxy)cyclohexane-1-carboxylic acid]: the IC50 came out at 229 nM.

As for `Cc1nc(-c2nnn(C)c2Cn2nnc(N(C)Cc3ccccc3)n2)ccc1O[C@H]1CCC[C@H](C(=O)O)C1` [Example 364, (1S,3S)-3-((6-(5-((5-(benzyl(methyl)amino)-2H-tetrazol-2-yl)methyl)-1-methyl-1H-1,2,3-triazol-4-yl)-2-methylpyridin-3-yl)oxy)cyclohexane-1-carboxylic acid], the IC50 worked out at 273 nM.

On to `CCCCn1nnnc1Cc1c(-c2ccc(O[C@H]3CCC[C@H](C(=O)O)C3)c(C)n2)nnn1C` [Example 365, (1S,3S)-3-((6-(5-((1-butyl-1H-tetrazol-5-yl)methyl)-1-methyl-1H-1,2,3-triazol-4-yl)-2-methylpyridin-3-yl)oxy)cyclohexane-1-carboxylic acid], for which the half-maximal inhibitory concentration (IC50) came to 322 nM.

Turning to `CCCCn1nnc(Cc2c(-c3ccc(O[C@H]4CCC[C@H](C(=O)O)C4)c(C)n3)nnn2C)n1` [Example 366, (1S,3S)-3-((6-(5-((2-butyl-2H-tetrazol-5-yl)methyl)-1-methyl-1H-1,2,3-triazol-4-yl)-2-methylpyridin-3-yl)oxy)cyclohexane-1-carboxylic acid], the 50% inhibitory concentration (IC50) was found to be 43 nM.

`Cc1nc(-c2nnn(C)c2Cn2nnc(N(Cc3ccccc3)Cc3ccccc3)n2)ccc1O[C@H]1CCC[C@H](C(=O)O)C1` [Example 367, (1S,3S)-3-((6-(5-((5-(dibenzyl-amino)-2H-tetrazol-2-yl)methyl)-1-methyl-1H-1,2,3-triazol-4-yl)-2-methylpyridin-3-yl)oxy)cyclo-hexane-1-carboxylic acid]: the IC50 came to 1580 nM.

For `Cc1nc(-c2nnn(C)c2Cn2nnc(NCc3ccccc3)n2)ccc1O[C@H]1CCC[C@H](C(=O)O)C1` [Example 368, (1S,3S)-3-((6-(5-((5-(benzylamino)-2H-tetrazol-2-yl)methyl)-1-methyl-1H-1,2,3-triazol-4-yl)-2-methyl-pyridin-3-yl)oxy)cyclohexane-1-carboxylic acid], the IC50 stood at 1020 nM.

In the case of `Cc1nc(-c2nnn(C)c2Cc2nnnn2Cc2ccccc2)ccc1O[C@H]1CCC[C@H](C(=O)O)C1` [Example 369, (1S,3S)-3-((6-(5-((1-benzyl-1H-tetrazol-5-yl)methyl)-1-methyl-1H-1,2,3-triazol-4-yl)-2-methylpyridin-3-yl)oxy)cyclohexane-1-carboxylic acid], the IC50 came out at 123 nM.

As for `CCc1nc(-c2nnn(C)c2Cn2cc(CC(C)C)nn2)ccc1O[C@H]1CCC[C@H](C(=O)O)C1` [Example 370, (1S,3S)-3-((2-ethyl-6-(5-((4-isobutyl-1H-1,2,3-triazol-1-yl)methyl)-1-methyl-1H-1,2,3-triazol-4-yl)pyridin-3-yl)oxy)cyclohexane-1-carboxylic acid], the half-inhibitory concentration (IC50) was 66 nM.

Regarding `CCc1nc(-c2nnn(C)c2Cn2cc(C(C)C)nn2)ccc1O[C@H]1CCC[C@H](C(=O)O)C1` [Example 371, (1S,3S)-3-((2-ethyl-6-(5-((4-isopropyl-1H-1,2,3-triazol-1-yl)methyl)-1-methyl-1H-1,2,3-triazol-4-yl)pyridin-3-yl)oxy)cyclohexane-1-carboxylic acid], the IC50 amounted to 1540 nM.

Consider `CCCc1cn(Cc2c(-c3ccc(O[C@H]4CCC[C@H](C(=O)O)C4)c(CC)n3)nnn2C)nn1` [Example 372, (1S,3S)-3-((2-ethyl-6-(1-methyl-5-((4-propyl-1H-1,2,3-triazol-1-yl)methyl)-1H-1,2,3-triazol-4-yl)pyridin-3-yl)oxy)cyclohexane-1-carboxylic acid], for which the IC50 was 303 nM.

Regarding `Cc1nc(-c2nnn(C)c2Cc2nnn(CC(C)C)n2)ccc1O[C@H]1CCC[C@H](C(=O)O)C1` [Example 373, (1S,3S)-3-((6-(5-((2-isobutyl-2H-tetrazol-5-yl)methyl)-1-methyl-1H-1,2,3-triazol-4-yl)-2-methylpyridin-3-yl)oxy)cyclohexane-1-carboxylic acid], the IC50 was 136 nM.

Regarding `Cc1nc(-c2nnn(C)c2Cc2nnnn2CC(C)C)ccc1O[C@H]1CCC[C@H](C(=O)O)C1` [Example 374, (1S,3S)-3-((6-(5-((1-isobutyl-1H-tetrazol-5-yl)methyl)-1-methyl-1H-1,2,3-triazol-4-yl)-2-methylpyridin-3-yl)oxy)cyclohexane-1-carboxylic acid], the IC50 stood at 207 nM.

In the case of `CCCCCc1cn(Cc2c(-c3ccc(O[C@H]4CCC[C@H](C(=O)O)C4)c(CC)n3)nnn2C)nn1` [Example 375, (1S,3S)-3-((2-ethyl-6-(1-methyl-5-((4-pentyl-1H-1,2,3-triazol-1-yl)methyl)-1H-1,2,3-triazol-4-yl)pyridin-3-yl)oxy)cyclohexane-1-carboxylic acid], the IC50 is 585 nM.

Consider `CCn1nnc(NCc2c(-c3ccc(O[C@H]4CCC[C@H](C(=O)O)C4)c(C)n3)nnn2C)n1` [Example 376, (1S,3S)-3-((6-(5-(((2-ethyl-2H-tetrazol-5-yl)amino)methyl)-1-methyl-1H-1,2,3-triazol-4-yl)-2-methylpyridin-3-yl)oxy)cyclohexane-1-carboxylic acid], for which the IC50 was found to be 2110 nM.

For the molecule `Cc1nc(-c2nnn(C)c2CN(CC2CC2)c2nnn(CC3CC3)n2)ccc1O[C@H]1CCC[C@H](C(=O)O)C1` [Example 377, (1S,3S)-3-((6-(5-(((cyclopropyl-methyl)(2-(cyclopropylmethyl)-2H-tetrazol-5-yl)amino)methyl)-1-methyl-1H-1,2,3-triazol-4-yl)-2-methylpyridin-3-yl)oxy)cyclohexane-1-carboxylic acid], the IC50 was 1240 nM.

In the case of `Cc1nc(-c2nnn(C)c2CNc2nnnn2CC2CC2)ccc1O[C@H]1CCC[C@H](C(=O)O)C1` [Example 378, (1S,3S)-3-((6-(5-(((1-(cyclopropylmethyl)-1H-tetrazol-5-yl)amino)methyl)-1-methyl-1H-1,2,3-triazol-4-yl)-2-methylpyridin-3-yl)oxy)cyclohexane-1-carboxylic acid], the half-inhibitory concentration (IC50) is 300 nM.

Take `COc1ccc(-n2nnc(NCc3c(-c4ccc(O[C@H]5CCC[C@@H](C(=O)O)C5)c(C)n4)nnn3C)n2)cc1` [Example 379, (1R,3S)-3-((6-(5-(((2-(4-methoxy-phenyl)-2H-tetrazol-5-yl)amino)methyl)-1-methyl-1H-1,2,3-triazol-4-yl)-2-methylpyridin-3-yl)oxy)cyclohexane-1-carboxylic acid]: the 50% inhibitory concentration (IC50) was 2080 nM.

For `Cc1cccc(-n2nnc(NCc3c(-c4ccc(O[C@H]5CCC[C@H](C(=O)O)C5)c(C)n4)nnn3C)n2)c1` [Example 380, (1S,3S)-3-((2-methyl-6-(1-methyl-5-(((2-(m-tolyl)-2H-tetrazol-5-yl)amino)methyl)-1H-1,2,3-triazol-4-yl)pyridin-3-yl)oxy)cyclohexane-1-carboxylic acid], the 50% inhibitory concentration (IC50) turned out to be 183 nM.

Regarding `Cc1ccccc1-n1nnc(NCc2c(-c3ccc(O[C@H]4CCC[C@H](C(=O)O)C4)c(C)n3)nnn2C)n1` [Example 381, (1S,3S)-3-((2-methyl-6-(1-methyl-5-(((2-(o-tolyl)-2H-tetrazol-5-yl)amino)methyl)-1H-1,2,3-triazol-4-yl)pyridin-3-yl)oxy)cyclohexane-1-carboxylic acid], the half-inhibitory concentration (IC50) was determined as 313 nM.

`CCCCn1nnc(NCc2c(-c3ccc(O[C@H]4CCC[C@H](C(=O)O)C4)c(C)n3)nnn2C)n1` [Example 382, (1S,3S)-3-((6-(5-(((2-butyl-2H-tetrazol-5-yl)amino)methyl)-1-methyl-1H-1,2,3-triazol-4-yl)-2-methylpyridin-3-yl)oxy)cyclo-hexane-1-carboxylic acid]: the IC50 was 521 nM.

On to `COc1ccc(-n2nnc(NCc3c(-c4ccc(O[C@H]5CCC[C@H](C(=O)O)C5)c(C)n4)nnn3C)n2)cc1` [Example 383, (1S,3S)-3-((6-(5-(((2-(4-methoxy-phenyl)-2H-tetrazol-5-yl)amino)methyl)-1-methyl-1H-1,2,3-triazol-4-yl)-2-methylpyridin-3-yl)oxy)cyclohexane-1-carboxylic acid], for which the IC50 was determined as 513 nM.

As a reminder, the IC50 is the concentration needed to halve the response being measured.

(Values after patent US11319315B2, “Cyclohexyl acid triazole azoles as LPA antagonists” (BRISTOL-MYERS SQUIBB COMPANY, priority 2017, dated 2022).)
